Experimental data as given in PubChem BioAssay (NCI).
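Test compounds were applied to cells in 96-well plates for 48 hours at 5 doses. GI50 = concentration required for 50% inhibition of growth. The concentration for full growth arrest is given as TGI.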

Columns and labels:
Assay in all cases: inhibition of tumour cell growth, NCI panel, 48 h
786-0 renal = tested on: 786-0 renal
A498 renal = tested on: A498 renal
A549 NSCLC = tested on: A549 NSCLC
ACHN renal = tested on: ACHN renal
CAKI-1 renal = tested on: CAKI-1 renal
CCRF-CEM leukemia = tested on: CCRF-CEM leukemia
COLO 205 colon = tested on: COLO 205 colon
DU-145 prostate = tested on: DU-145 prostate
EKVX NSCLC = tested on: EKVX NSCLC
HCC-2998 colon = tested on: HCC-2998 colon
HCT-116 colon = tested on: HCT-116 colon
HCT-15 colon = tested on: HCT-15 colon
HL-60(TB) leukemia = tested on: HL-60(TB) leukemia
HOP-62 NSCLC = tested on: HOP-62 NSCLC
HS 578T breast = tested on: HS 578T breast
IGROV1 ovarian = tested on: IGROV1 ovarian
K-562 leukemia = tested on: K-562 leukemia
KM12 colon = tested on: KM12 colon
LOX IMVI melanoma = tested on: LOX IMVI melanoma
M14 melanoma = tested on: M14 melanoma
MALME-3M melanoma = tested on: MALME-3M melanoma
MCF7 breast = tested on: MCF7 breast
MDA-MB-231 breast = tested on: MDA-MB-231 breast
MDA-MB-435 = tested on: MDA-MB-435
MDA-N = tested on: MDA-N
MOLT-4 leukemia = tested on: MOLT-4 leukemia
NCI-H226 lung = tested on: NCI-H226 lung
NCI-H23 lung = tested on: NCI-H23 lung
NCI-H460 lung = tested on: NCI-H460 lung
NCI-H522 lung = tested on: NCI-H522 lung
NCI/ADR-RES ovarian = tested on: NCI/ADR-RES ovarian
OVCAR-3 ovarian = tested on: OVCAR-3 ovarian
OVCAR-5 ovarian = tested on: OVCAR-5 ovarian
OVCAR-8 ovarian = tested on: OVCAR-8 ovarian
PC-3 prostate = tested on: PC-3 prostate
RPMI-8226 leukemia = tested on: RPMI-8226 leukemia
RXF 393 renal = tested on: RXF 393 renal
SF-268 CNS = tested on: SF-268 CNS
SF-295 CNS = tested on: SF-295 CNS
SF-539 CNS = tested on: SF-539 CNS
SK-MEL-2 melanoma = tested on: SK-MEL-2 melanoma
SK-MEL-28 melanoma = tested on: SK-MEL-28 melanoma
SK-MEL-5 melanoma = tested on: SK-MEL-5 melanoma
SK-OV-3 ovarian = tested on: SK-OV-3 ovarian
SN12C renal = tested on: SN12C renal
SNB-19 CNS = tested on: SNB-19 CNS
SR leukemia = tested on: SR leukemia
SW-620 colon = tested on: SW-620 colon
T-47D breast = tested on: T-47D breast
TK-10 renal = tested on: TK-10 renal
U251 CNS = tested on: U251 CNS
UACC-257 melanoma = tested on: UACC-257 melanoma
UACC-62 melanoma = tested on: UACC-62 melanoma
UO-31 renal = tested on: UO-31 renal

SMILES: NC(N)=NCCC1OC(=O)C2=C1c1c(O)ccc3nccc(c13)O2 (stereo not drawn)
- GI50 (786-0 renal): > 100 µM
- TGI (786-0 renal): > 100 µM
- GI50 (A498 renal): > 100 µM
- TGI (A498 renal): > 100 µM
- GI50 (A549 NSCLC): > 100 µM
- TGI (A549 NSCLC): > 100 µM
- GI50 (ACHN renal): > 100 µM
- TGI (ACHN renal): > 100 µM
- GI50 (CAKI-1 renal): > 100 µM
- TGI (CAKI-1 renal): > 100 µM
- GI50 (CCRF-CEM leukemia): > 100 µM
- TGI (CCRF-CEM leukemia): > 100 µM
- GI50 (COLO 205 colon): > 100 µM
- TGI (COLO 205 colon): > 100 µM
- GI50 (DU-145 prostate): > 100 µM
- TGI (DU-145 prostate): > 100 µM
- GI50 (EKVX NSCLC): > 100 µM
- TGI (EKVX NSCLC): > 100 µM
- GI50 (HCC-2998 colon): > 100 µM
- TGI (HCC-2998 colon): > 100 µM
- GI50 (HCT-116 colon): > 100 µM
- TGI (HCT-116 colon): > 100 µM
- GI50 (HCT-15 colon): > 100 µM
- TGI (HCT-15 colon): > 100 µM
- GI50 (HL-60(TB) leukemia): > 100 µM
- TGI (HL-60(TB) leukemia): > 100 µM
- GI50 (HOP-62 NSCLC): > 100 µM
- TGI (HOP-62 NSCLC): > 100 µM
- GI50 (HS 578T breast): > 100 µM
- TGI (HS 578T breast): > 100 µM
- GI50 (IGROV1 ovarian): > 100 µM
- TGI (IGROV1 ovarian): > 100 µM
- GI50 (K-562 leukemia): > 100 µM
- TGI (K-562 leukemia): > 100 µM
- GI50 (KM12 colon): > 100 µM
- TGI (KM12 colon): > 100 µM
- GI50 (LOX IMVI melanoma): > 100 µM
- TGI (LOX IMVI melanoma): > 100 µM
- GI50 (M14 melanoma): > 100 µM
- TGI (M14 melanoma): > 100 µM
- GI50 (MALME-3M melanoma): > 100 µM
- TGI (MALME-3M melanoma): > 100 µM
- GI50 (MCF7 breast): > 100 µM
- TGI (MCF7 breast): > 100 µM
- GI50 (MDA-MB-231 breast): > 100 µM
- TGI (MDA-MB-231 breast): > 100 µM
- GI50 (MDA-MB-435): > 100 µM
- TGI (MDA-MB-435): > 100 µM
- GI50 (MDA-N): > 100 µM
- TGI (MDA-N): > 100 µM
- GI50 (MOLT-4 leukemia): > 100 µM
- TGI (MOLT-4 leukemia): > 100 µM
- GI50 (NCI-H226 lung): 89.9 µM
- TGI (NCI-H226 lung): > 100 µM
- GI50 (NCI-H23 lung): > 100 µM
- TGI (NCI-H23 lung): > 100 µM
- GI50 (NCI-H460 lung): > 100 µM
- TGI (NCI-H460 lung): > 100 µM
- GI50 (NCI-H522 lung): > 100 µM
- TGI (NCI-H522 lung): > 100 µM
- GI50 (NCI/ADR-RES ovarian): > 100 µM
- TGI (NCI/ADR-RES ovarian): > 100 µM
- GI50 (OVCAR-3 ovarian): > 100 µM
- TGI (OVCAR-3 ovarian): > 100 µM
- GI50 (OVCAR-5 ovarian): > 100 µM
- TGI (OVCAR-5 ovarian): > 100 µM
- GI50 (OVCAR-8 ovarian): > 100 µM
- TGI (OVCAR-8 ovarian): > 100 µM
- GI50 (PC-3 prostate): > 100 µM
- TGI (PC-3 prostate): > 100 µM
- GI50 (RPMI-8226 leukemia): > 100 µM
- TGI (RPMI-8226 leukemia): > 100 µM
- GI50 (RXF 393 renal): > 100 µM
- TGI (RXF 393 renal): > 100 µM
- GI50 (SF-268 CNS): 23.8 µM
- TGI (SF-268 CNS): > 100 µM
- GI50 (SF-295 CNS): > 100 µM
- TGI (SF-295 CNS): > 100 µM
- GI50 (SF-539 CNS): > 100 µM
- TGI (SF-539 CNS): > 100 µM
- GI50 (SK-MEL-2 melanoma): > 100 µM
- TGI (SK-MEL-2 melanoma): > 100 µM
- GI50 (SK-MEL-28 melanoma): > 100 µM
- TGI (SK-MEL-28 melanoma): > 100 µM
- GI50 (SK-MEL-5 melanoma): 62.1 µM
- TGI (SK-MEL-5 melanoma): > 100 µM
- GI50 (SK-OV-3 ovarian): > 100 µM
- TGI (SK-OV-3 ovarian): > 100 µM
- GI50 (SN12C renal): > 100 µM
- TGI (SN12C renal): > 100 µM
- GI50 (SNB-19 CNS): 50.5 µM
- TGI (SNB-19 CNS): > 100 µM
- GI50 (SR leukemia): > 100 µM
- TGI (SR leukemia): > 100 µM
- GI50 (SW-620 colon): > 100 µM
- TGI (SW-620 colon): > 100 µM
- GI50 (T-47D breast): 95.1 µM
- TGI (T-47D breast): > 100 µM
- GI50 (TK-10 renal): > 100 µM
- TGI (TK-10 renal): > 100 µM
- GI50 (U251 CNS): 56.7 µM
- TGI (U251 CNS): > 100 µM
- GI50 (UACC-257 melanoma): 1.73 µM
- TGI (UACC-257 melanoma): > 100 µM
- GI50 (UACC-62 melanoma): > 100 µM
- TGI (UACC-62 melanoma): > 100 µM
- GI50 (UO-31 renal): > 100 µM
- TGI (UO-31 renal): > 100 µM
